# According to paper PMC5762315, “Inhibition of polo-like kinase 4 (PLK4): a new therapeutic option for rhabdoid tumors and pediatric medulloblastoma” (Oncotarget, 2017):
# Where “and” joins values, the source holds several entries; their conditions need not be identical. Equal entries are not always repeated.
# How the values were obtained:
# Experiment in all cases: LanthaScreen Eu Kinase Binding Assay, panel of 486 biochemical kinase assays
# [1] = biological target: various kinases (Homo sapiens, UniProt O75716); settings: kinase STK16 (PKL12); LanthaScreen Binding
# [2] = biological target: various kinases (Homo sapiens, UniProt P07949, M918T); settings: kinase RET M918T; LanthaScreen Binding
# [3] = biological target: various kinases (Homo sapiens, UniProt P10721, D816H); settings: KIT D816H
# [4] = biological target: various kinases (Homo sapiens, UniProt P10721, D816V); settings: KIT D816V
# [5] = biological target: various kinases (Homo sapiens, UniProt P10721, D820E); settings: KIT D820E
# [6] = biological target: various kinases (Homo sapiens, UniProt P10721, T670I/V559D); settings: KIT V559D T670I
# [7] = biological target: various kinases (Homo sapiens, UniProt P10721, V654A); settings: KIT V654A
# [8] = biological target: various kinases (Homo sapiens, UniProt P10721, Y823D); settings: KIT Y823D
# [9] = biological target: various kinases (Homo sapiens, UniProt P22607, G697C); settings: FGFR3 G697C
# [10] = biological target: various kinases (Homo sapiens, UniProt P22694); settings: kinase PRKACB (PRKAC beta); LanthaScreen Binding
# [11] = biological target: various kinases (Homo sapiens, UniProt P30291); settings: kinase WEE1; LanthaScreen Binding
# [12] = biological target: various kinases (Homo sapiens, UniProt P36507); settings: MAP2K2 (MEK2)
# [13] = biological target: various kinases (Homo sapiens, UniProt P37023); settings: ACVRL1 (ALK1)
# [14] = biological target: various kinases (Homo sapiens, UniProt P45984); settings: MAPK9 (JNK2)
# [15] = biological target: various kinases (Homo sapiens, UniProt P45985); settings: MAP2K4 (MEK4)
# [16] = biological target: various kinases (Homo sapiens, UniProt P49336); settings: CDK8/cyclin C
# [17] = biological target: various kinases (Homo sapiens, UniProt P53667); settings: LIMK1
# [18] = biological target: various kinases (Homo sapiens, UniProt Q00536); settings: CDK16 (PCTK1)/cyclin Y
# [19] = biological target: various kinases (Homo sapiens, UniProt Q07912); settings: kinase TNK2 (ACK); LanthaScreen Binding
# [20] = biological target: various kinases (Homo sapiens, UniProt Q09013); settings: DMPK
# [21] = biological target: various kinases (Homo sapiens, UniProt Q13131)
# [22] = biological target: various kinases (Homo sapiens, UniProt Q15569); settings: kinase TESK1; LanthaScreen Binding
# [23] = biological target: various kinases (Homo sapiens, UniProt Q16584); settings: MAP3K11 (MLK3)
# [24] = biological target: various kinases (Homo sapiens, UniProt Q2M2I8); settings: AAK1
# [25] = biological target: various kinases (Homo sapiens, UniProt Q5TCX8); settings: MLK4
# [26] = biological target: various kinases (Homo sapiens, UniProt Q86UE8); settings: kinase TLK2; LanthaScreen Binding
# [27] = biological target: various kinases (Homo sapiens, UniProt Q86UX6); settings: kinase STK32C (YANK3); LanthaScreen Binding
# [28] = biological target: various kinases (Homo sapiens, UniProt Q8IVH8); settings: MAP4K3 (GLK)
# [29] = biological target: various kinases (Homo sapiens, UniProt Q8WXR4); settings: MYO3B (MYO3 beta)
# [30] = biological target: various kinases (Homo sapiens, UniProt Q92630); settings: DYRK2
# [31] = biological target: various kinases (Homo sapiens, UniProt Q9BYP7); settings: kinase WNK3; LanthaScreen Binding
# [32] = biological target: various kinases (Homo sapiens, UniProt Q9H4A3); settings: kinase WNK1; LanthaScreen Binding
# [33] = biological target: various kinases (Homo sapiens, UniProt Q9UM73, L1196M); settings: ALK L1196M
# [34] = biological target: various kinases (Homo sapiens, UniProt Q9Y572); settings: kinase RIPK3; LanthaScreen Binding
# Chain of various kinases (Homo sapiens, UniProt Q9Y572) (Q9Y572 whole entry): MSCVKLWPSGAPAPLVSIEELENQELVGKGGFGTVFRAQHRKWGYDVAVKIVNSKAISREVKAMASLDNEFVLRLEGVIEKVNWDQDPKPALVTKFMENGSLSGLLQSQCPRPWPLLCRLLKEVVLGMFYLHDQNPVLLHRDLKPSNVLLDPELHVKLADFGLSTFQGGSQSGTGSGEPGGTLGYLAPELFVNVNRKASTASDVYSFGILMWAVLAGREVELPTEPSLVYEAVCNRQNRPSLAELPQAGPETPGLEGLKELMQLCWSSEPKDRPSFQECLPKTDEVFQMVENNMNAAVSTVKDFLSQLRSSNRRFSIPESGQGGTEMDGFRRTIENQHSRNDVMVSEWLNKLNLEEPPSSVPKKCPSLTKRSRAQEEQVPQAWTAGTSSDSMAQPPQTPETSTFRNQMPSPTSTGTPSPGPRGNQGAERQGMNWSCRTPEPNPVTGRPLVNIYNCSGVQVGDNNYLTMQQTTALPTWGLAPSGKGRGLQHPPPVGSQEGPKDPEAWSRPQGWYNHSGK
# Chain of various kinases (Homo sapiens, UniProt P30291) (P30291 whole entry): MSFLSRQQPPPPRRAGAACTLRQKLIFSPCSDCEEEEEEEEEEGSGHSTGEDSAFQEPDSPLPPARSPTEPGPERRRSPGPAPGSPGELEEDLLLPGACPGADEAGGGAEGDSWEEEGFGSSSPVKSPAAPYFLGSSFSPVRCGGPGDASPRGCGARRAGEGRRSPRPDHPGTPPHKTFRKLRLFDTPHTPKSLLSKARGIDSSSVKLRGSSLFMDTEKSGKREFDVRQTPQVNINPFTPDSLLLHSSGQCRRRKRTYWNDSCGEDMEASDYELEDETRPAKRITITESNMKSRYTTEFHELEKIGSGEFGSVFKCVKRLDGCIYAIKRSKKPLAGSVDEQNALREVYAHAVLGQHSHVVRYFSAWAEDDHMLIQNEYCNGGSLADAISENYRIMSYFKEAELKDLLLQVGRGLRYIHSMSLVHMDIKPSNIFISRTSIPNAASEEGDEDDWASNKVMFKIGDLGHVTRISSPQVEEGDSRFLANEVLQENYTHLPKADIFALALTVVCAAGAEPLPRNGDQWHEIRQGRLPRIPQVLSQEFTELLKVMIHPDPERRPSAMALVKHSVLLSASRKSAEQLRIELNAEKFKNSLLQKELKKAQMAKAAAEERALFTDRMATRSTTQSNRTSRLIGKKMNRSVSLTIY
# Chain of various kinases (Homo sapiens, UniProt O75716) (O75716 whole entry): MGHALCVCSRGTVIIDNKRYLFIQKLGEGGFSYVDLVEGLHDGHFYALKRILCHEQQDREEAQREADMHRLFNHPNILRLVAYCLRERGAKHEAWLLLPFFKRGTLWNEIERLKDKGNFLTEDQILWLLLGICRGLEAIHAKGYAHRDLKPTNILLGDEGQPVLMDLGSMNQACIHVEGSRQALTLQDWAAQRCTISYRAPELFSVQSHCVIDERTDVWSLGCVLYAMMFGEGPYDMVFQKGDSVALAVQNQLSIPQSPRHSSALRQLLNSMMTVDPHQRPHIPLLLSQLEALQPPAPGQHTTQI
# Chain of various kinases (Homo sapiens, UniProt Q15569) (Q15569 whole entry): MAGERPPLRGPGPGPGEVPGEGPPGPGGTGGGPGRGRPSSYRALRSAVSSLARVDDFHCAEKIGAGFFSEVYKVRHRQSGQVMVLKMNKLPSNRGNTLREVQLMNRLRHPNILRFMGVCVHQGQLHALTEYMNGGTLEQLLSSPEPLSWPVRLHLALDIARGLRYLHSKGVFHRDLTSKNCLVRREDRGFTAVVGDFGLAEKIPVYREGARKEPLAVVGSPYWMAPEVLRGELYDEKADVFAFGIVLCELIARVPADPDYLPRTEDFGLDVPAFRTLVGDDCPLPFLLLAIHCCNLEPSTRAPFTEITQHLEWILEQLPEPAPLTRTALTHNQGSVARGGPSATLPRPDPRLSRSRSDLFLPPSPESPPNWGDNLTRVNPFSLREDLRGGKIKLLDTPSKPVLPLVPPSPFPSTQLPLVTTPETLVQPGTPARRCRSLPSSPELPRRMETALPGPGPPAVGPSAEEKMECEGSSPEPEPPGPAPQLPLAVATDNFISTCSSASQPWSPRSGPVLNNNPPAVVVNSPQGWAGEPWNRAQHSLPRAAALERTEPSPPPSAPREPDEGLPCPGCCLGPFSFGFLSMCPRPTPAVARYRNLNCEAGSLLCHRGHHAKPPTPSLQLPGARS
# Chain of various kinases (Homo sapiens, UniProt Q86UE8) (Q86UE8 whole entry): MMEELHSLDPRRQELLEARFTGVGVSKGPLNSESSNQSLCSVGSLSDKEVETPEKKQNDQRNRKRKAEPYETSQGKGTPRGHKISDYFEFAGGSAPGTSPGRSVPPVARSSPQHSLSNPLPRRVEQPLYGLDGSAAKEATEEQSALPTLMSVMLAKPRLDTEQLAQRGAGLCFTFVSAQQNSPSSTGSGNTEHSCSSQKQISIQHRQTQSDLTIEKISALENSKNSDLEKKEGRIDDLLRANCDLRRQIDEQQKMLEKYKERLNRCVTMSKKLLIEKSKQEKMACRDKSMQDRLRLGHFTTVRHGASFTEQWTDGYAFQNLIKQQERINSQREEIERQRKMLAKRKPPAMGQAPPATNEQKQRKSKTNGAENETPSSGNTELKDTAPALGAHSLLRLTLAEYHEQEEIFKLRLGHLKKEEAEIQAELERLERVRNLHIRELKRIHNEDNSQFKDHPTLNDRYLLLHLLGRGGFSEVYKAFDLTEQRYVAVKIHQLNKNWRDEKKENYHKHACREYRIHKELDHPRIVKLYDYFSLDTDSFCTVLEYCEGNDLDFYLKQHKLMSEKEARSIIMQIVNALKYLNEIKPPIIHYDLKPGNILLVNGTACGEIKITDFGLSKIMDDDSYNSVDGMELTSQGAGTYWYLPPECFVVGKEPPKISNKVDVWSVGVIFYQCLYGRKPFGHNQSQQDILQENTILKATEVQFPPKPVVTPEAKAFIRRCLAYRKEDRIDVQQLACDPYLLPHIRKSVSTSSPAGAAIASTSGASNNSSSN
# Chain of various kinases (Homo sapiens, UniProt Q9BYP7) (Q9BYP7 whole entry): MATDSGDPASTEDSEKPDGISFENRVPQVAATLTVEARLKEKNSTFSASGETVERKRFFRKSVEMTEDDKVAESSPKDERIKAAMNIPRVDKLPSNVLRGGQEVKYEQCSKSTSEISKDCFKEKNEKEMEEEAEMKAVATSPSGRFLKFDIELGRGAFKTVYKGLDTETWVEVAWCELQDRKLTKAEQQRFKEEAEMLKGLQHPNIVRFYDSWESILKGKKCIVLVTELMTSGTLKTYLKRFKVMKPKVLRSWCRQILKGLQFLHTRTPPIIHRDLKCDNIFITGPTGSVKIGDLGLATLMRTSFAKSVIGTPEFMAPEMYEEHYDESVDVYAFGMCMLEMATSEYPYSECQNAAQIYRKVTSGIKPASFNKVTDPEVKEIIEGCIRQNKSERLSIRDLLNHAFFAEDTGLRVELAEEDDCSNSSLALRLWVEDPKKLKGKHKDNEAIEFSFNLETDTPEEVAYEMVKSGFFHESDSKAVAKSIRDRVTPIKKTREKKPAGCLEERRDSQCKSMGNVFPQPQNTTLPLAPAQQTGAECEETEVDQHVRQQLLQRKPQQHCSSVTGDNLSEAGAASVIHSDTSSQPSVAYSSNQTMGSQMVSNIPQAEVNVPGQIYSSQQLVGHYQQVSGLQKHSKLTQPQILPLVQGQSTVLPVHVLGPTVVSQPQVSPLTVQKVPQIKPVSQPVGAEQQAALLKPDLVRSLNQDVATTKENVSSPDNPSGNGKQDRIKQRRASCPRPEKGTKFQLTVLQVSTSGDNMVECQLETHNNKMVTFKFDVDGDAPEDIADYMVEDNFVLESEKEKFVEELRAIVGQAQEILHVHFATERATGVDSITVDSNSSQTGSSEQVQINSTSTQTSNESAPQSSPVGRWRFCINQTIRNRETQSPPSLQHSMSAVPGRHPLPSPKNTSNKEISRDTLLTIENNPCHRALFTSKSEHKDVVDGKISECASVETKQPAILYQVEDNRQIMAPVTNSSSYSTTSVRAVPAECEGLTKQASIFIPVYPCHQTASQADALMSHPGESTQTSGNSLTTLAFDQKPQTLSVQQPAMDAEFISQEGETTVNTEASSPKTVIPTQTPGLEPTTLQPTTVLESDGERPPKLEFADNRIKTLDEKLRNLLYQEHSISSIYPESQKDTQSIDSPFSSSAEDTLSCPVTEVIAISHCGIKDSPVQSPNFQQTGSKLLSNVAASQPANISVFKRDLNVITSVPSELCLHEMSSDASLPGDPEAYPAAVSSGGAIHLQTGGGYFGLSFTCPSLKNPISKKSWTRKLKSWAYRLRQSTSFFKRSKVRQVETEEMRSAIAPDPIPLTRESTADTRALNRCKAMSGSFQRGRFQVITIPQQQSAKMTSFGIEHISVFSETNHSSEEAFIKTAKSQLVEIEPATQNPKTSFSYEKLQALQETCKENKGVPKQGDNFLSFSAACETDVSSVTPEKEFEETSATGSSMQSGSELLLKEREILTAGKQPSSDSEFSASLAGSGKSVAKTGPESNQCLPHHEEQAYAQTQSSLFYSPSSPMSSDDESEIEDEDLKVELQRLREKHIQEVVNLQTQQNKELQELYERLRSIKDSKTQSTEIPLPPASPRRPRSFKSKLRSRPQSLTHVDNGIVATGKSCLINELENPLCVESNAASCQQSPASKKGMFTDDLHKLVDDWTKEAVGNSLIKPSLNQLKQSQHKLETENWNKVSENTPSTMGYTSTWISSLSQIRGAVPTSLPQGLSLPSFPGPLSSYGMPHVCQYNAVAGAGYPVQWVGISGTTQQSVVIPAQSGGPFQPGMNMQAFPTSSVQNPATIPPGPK
# Chain of various kinases (Homo sapiens, UniProt P36507) (P36507 whole entry): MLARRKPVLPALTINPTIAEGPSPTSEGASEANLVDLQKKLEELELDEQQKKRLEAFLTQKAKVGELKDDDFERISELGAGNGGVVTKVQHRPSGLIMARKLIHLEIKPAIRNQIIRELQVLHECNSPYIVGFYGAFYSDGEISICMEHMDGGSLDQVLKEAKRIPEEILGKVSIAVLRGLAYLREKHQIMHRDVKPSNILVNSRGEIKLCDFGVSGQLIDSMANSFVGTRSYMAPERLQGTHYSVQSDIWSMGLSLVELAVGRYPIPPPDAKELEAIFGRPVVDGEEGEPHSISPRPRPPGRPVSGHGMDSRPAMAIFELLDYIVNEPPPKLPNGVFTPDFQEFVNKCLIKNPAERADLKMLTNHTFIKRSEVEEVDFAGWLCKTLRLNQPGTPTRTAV
smiles,measurement,setting,value
COc1ccc2c(c1)[C@]1(C[C@H]1c1ccc3c(/C=C/c4ccc(CN5C[C@@H](C)O[C@@H](C)C5)cc4)n[nH]c3c1)C(=O)N2 [CFI-400945],% Inhibition Average,[1],1%
same,% Inhibition Duplicate #1,[1],-1%
same,% Inhibition Duplicate #2,[1],4%
same,% Inhibition Average,[2],27%
same,% Inhibition Duplicate #1,[2],26%
same,% Inhibition Duplicate #2,[2],28%
same,% Inhibition,[3],21% and 20%
same,% Inhibition,[4],-1% and 0%
same,% Inhibition,[5],3% and 4%
same,% Inhibition,[6],10%
same,% Inhibition,[7],6%
same,% Inhibition,[8],4% and -6%
same,% Inhibition,[9],30% and 40%
same,% Inhibition Average,[10],-4%
same,% Inhibition Duplicate #1,[10],-6%
same,% Inhibition Duplicate #2,[10],-3%
same,% Inhibition Average,[11],-5%
same,% Inhibition Duplicate #1,[11],-7%
same,% Inhibition Duplicate #2,[11],-2%
same,% Inhibition,[12],1% and 2%
same,% Inhibition,[13],10% and 0%
same,% Inhibition,[14],-4% and -2%
same,% Inhibition,[15],7% and 3%
same,% Inhibition,[16],17% and 9%
same,% Inhibition,[17],11% and 15%
same,% Inhibition,[18],10% and 9%
same,% Inhibition Average,[19],9%
same,% Inhibition Duplicate #1,[19],11%
same,% Inhibition Duplicate #2,[19],8%
same,% Inhibition,[20],1% and -3%
same,% Inhibition,[21]; AMPK (A1/B1/G2),13% and 9%
same,% Inhibition,[21]; AMPK (A1/B1/G3),10% and 15%
same,% Inhibition,[21]; AMPK (A1/B2/G1),14% and 13%
same,% Inhibition Average,[22],12%
same,% Inhibition Duplicate #1,[22],13%
same,% Inhibition Duplicate #2,[22],11%
same,% Inhibition,[23],7% and -2%
same,% Inhibition,[24],9% and 6%
same,% Inhibition,[25],8% and 4%
same,% Inhibition Average,[26],9%
same,% Inhibition Duplicate #1,[26],14%
same,% Inhibition Duplicate #2,[26],5%
same,% Inhibition Average,[27],15%
same,% Inhibition Duplicate #1,[27],14%
same,% Inhibition Duplicate #2,[27],17%
same,% Inhibition,[28],23% and 19%
same,% Inhibition,[29],7% and 6%
same,% Inhibition,[30],1% and 10%
same,% Inhibition Average,[31],-2%
same,% Inhibition Duplicate #1,[31],-2%
same,% Inhibition Duplicate #2,[31],-1%
same,% Inhibition Average,[32],11%
same,% Inhibition Duplicate #1,[32],14%
same,% Inhibition Duplicate #2,[32],8%
same,% Inhibition,[33],14% and 25%
same,% Inhibition Average,[34],11%
same,% Inhibition Duplicate #1,[34],11%
same,% Inhibition Duplicate #2,[34],11%
